The record followed here is patent US12516341B2, “Use of flavonoid glycoside substance and glycosyltransferase gene for regulating resistance of plants to weeds” (ZHONGKENONGFU(BEIJING) BIOTECHNOLOGY CO., LTD, priority 2020, dated 2026).

One assay concerns lettuce. The assay is described as follows: External application of compound to lettuce seeds on agar, root length. In kind it is in vivo. The note with it: external application concentration 500 mg/L in 0.8% agar; 28° C. in the dark for 3 days; compared with control. The procedure: (§1) The reasons for choosing lettuce and barnyardgrass in the external application experiment were: lettuce was a common indicator crop reported in the literature for external application of allelopathic experiments, while barnyardgrass was the main weed in paddy fields.
(§2) (1) The compound of tricin-5-O-glucopyranoside was dried to a powder with a centrifugal concentrator and weighed, and an appropriate amount of sterile water was added to give a final concentration of 10 mg/mL.
(§3) (2) 500 mL of 0.8% agar was prepared and sterilized in an autoclave.
(§4) (3) The sterilized agar was placed in an ultra-clean bench and cooled to room temperature (note: the medium was not allowed to solidify), and then 4.75 mL of medium was accurately pipetted into a sterilized 10 mL centrifuge tube. 250 μL of the 10 mg/mL compound solution was added to give a final compound concentration of 500 mg/L. The medium containing the compound was quickly poured into a 10 cm×10 cm square dish, and the square dish was shaken quickly to make the medium evenly spread in the square dish. A medium in which 250 μL of sterile water was added to 4.75 mL of the medium was used as a control.
(§5) (4) Barnyardgrass and lettuce seeds were washed several times with distilled water, respectively, and then dried on sterile filter paper. […]
(§6) (7) Phenotypic statistics: the root length of each treated material was counted after 3 days. […]

For another assay, the system named is barnyardgrass. The assay is described as follows: External application of compound to barnyardgrass seeds on agar, root length. The assay is classed as in vivo. The note with it: external application concentration 500 mg/L in 0.8% agar; 28° C. in the dark for 3 days; compared with control. The procedure:
as §1, §2, §3, §4, §5, §6

The test system of assay [1] is Os07g0503900 recombinant protein. The assay is described as follows: In vitro enzyme activity of Os07g0503900 (glycosylation of tricin with UDPG, UPLC-MS detection). The assay is classed as biochemical, rice. Particulars: glycosyl donor UDPG; 30° C. for 1 h; pH 7.0; product tricin-5-O-glucopyranoside. The procedure: (1) The enzymatic reaction system was: Tris-HCl (pH 7.0, 50 mM, containing 10 mM DTT) 38 μL, 10 mM glycosyl acceptor (the glycosyl acceptor of Os07g0503900 was tricin) 1 μL, 100 mM glycosyl donor (UDPG) 1 μL, and 10 μL of the Os07g0503900 recombinant protein obtained in step 2 (Os07g0503900 protein concentration was 3.77 μg/μL). The reaction was carried out in a water bath at 30° C. for 1 h, and then quenched with an equal volume of methanol. A sample of the protein obtained from the E. coli transformed into the pMAL-c2X empty vector according to the above-mentioned step 2 was added as a control.
(2) Enzyme activity product detection: The sample in (1) was centrifuged at 4° C., 12,000 rpm for 10 min, and 30 μL was taken for detection by UPLC-MS (Agilent 1290UPLC-6540Q-TOF). Mobile phase A phase: 0.1% formic acid aqueous solution, % represented volume percentage; B phase: acetonitrile. Elution gradient: 0-2 min: 5% B-10% B, 2-12 min: 10% B-25% B, 12-18 min: 25% B-70% B, 18-23 min: 70% B-90% B, 23-25 min: 90% B-100% B, 25-30 min: 100% B, post-run for 5 min, % all represented volume percentage. The flow rate was 0.3 mL/min, the column temperature: 40° C., and the injection volume: 5 μL. Electrospray ionization (ESI) was used for detection in positive ion mode. The carrier gas was high-purity nitrogen at a pressure of 40 psi and a temperature of 325° C.

For `COc1cc(-c2cc(=O)c3c(O[C@@H]4O[C@H](CO)[C@@H](O)[C@H](O)[C@H]4O)cc(O)cc3o2)cc(OC)c1O` [tricin-5-O-glucopyranoside], the “inhibitory effect on the growth of lettuce (root length)” value in the assay on lettuce is “very significant ability to inhibit the growth”. Moreover, the “inhibitory effect on the growth of barnyardgrass (root length)” value in the assay on barnyardgrass is reported as “very significant ability to inhibit the growth”.
On to `COc1cc(-c2cc(=O)c3c(O)cc(O)cc3o2)cc(OC)c1O` [tricin], for which the “glycosylation of tricin by Os07g0503900 in vitro (new chromatographic peak vs empty vector control)” value in assay [1] is reported as “Os07g0503900 can catalyze the glycosylation of tricin in vitro”. Further, the “inhibitory effect on the growth of lettuce (root length)” value in the assay on lettuce was “not obvious”. Also, the “inhibitory effect on the growth of barnyardgrass (root length)” value with barnyardgrass was “not obvious”.
